Laboratory results as given in patent publication US8981150B2 (priority 2009, dated 2015).

assay: Solubility in water

| SMILES | Solubility in water (% w/w) |
| --- | --- |
| CCCCC(OC)C(=O)N(C)C (stereo not shown) [Product 4] | <0.05 % w/w |
| CCCCC(OCC)C(=O)N(C)C (stereo not shown) [Product 5] | <0.05 % w/w |
| CCCC(OC)C(=O)N(C)C (stereo not shown) [Product 6] | <0.1 % w/w |
| CCCC(OCC)C(=O)N(C)C (stereo not shown) [Product 7] | <0.1 % w/w |
